The test system of one data set is MDA-MB-468. Description: Growth inhibition of human MDA-MB-468 cells incubated for 48 hrs by SRB assay. The format is functional. Background: In SRB staining, fixed cells bind dye roughly in proportion to their protein.
For the next data set, the target named is CYP450 (Homo sapiens, UniProt P04798+P05177+P05181+P08684+P10632+P10635+P11509+P11712+P13584+P20813+P20815+P20853+P24462+P24903+P33260+P33261+P51589+P78329+P98187+Q02928+Q08477+Q16678+Q16696+Q5TCH4+Q6VVX0+Q7Z449+Q8TAV3+Q96SQ9+Q9HB55). Description: Inhibition of CYP450 (unknown origin). Type of data set: ADME, protein assay.
Data set [1] deals with A549. Description: Growth inhibition of human A549 cells incubated for 48 hrs by SRB assay. The format is functional.
Data set [2] concerns HCT-116. Description: Antitumor activity against human HCT-116 cells xenografted in athymic nude BALB/c mouse assessed as reduction in tumor growth at 12.5 mg/kg, ip administered every other day and measured every other day for 16 days. To be noted: HCT-116, 384 h, time 16 day, read-out: TGI. Type of data set: functional. (A xenograft is tissue or cells of one species grown in another, often human tumour cells in immunodeficient mice.)

Data set [3] has as its system HCT-116. In words: Growth inhibition of human HCT-116 cells incubated for 48 hrs by SRB assay. The format is functional.
In the next data set the test system is CAL-51. In words: Antiproliferative activity against human CAL-51 cells assessed as inhibition of cell growth incubated for 72 hrs by MTT assay. The format is functional, cell-based. To be noted: CAL-51, 72 h. On the technique in general: Tetrazolium dyes change colour on reduction, which living cells bring about.
In data set [4] the test system is A549. Description: Antiproliferative activity against human A549 cells assessed as reduction in cell growth incubated for 48 hrs by MTT assay. To be noted: A549, 48 h. The format is functional, cell-based.
The target of data set [5] is Mitogen-activated protein kinase 8 (Homo sapiens, UniProt P45983). In words: Inhibition of JNK1 (unknown origin) using ATF2 as substrate after 1 hr by Lanthascreen TR-FRET assay.
Another data set relates to COLO 205. Description: Antiproliferative activity against human COLO 205 cells assessed as reduction in cell viability incubated for 48 hrs by MTT assay. Type of data set: functional, cell-based. As to conditions: COLO 205, 48 h.
The nature of data set [6]: Half life in mouse. Type of data set: ADME, organism-based. To be noted: in vivo.
Data set [7] in a line: AUC in mouse. Type of data set: ADME, organism-based. As to conditions: in vivo.
The next data set relates to MOLT-4. Description: Antiproliferative activity against human MOLT-4 cells assessed as reduction in cell growth incubated for 72 hrs by MTT assay. Type of data set: functional, cell-based. As to conditions: MOLT-4, 72 h.
Another data set has as its target T1, Aurora kinase A (Homo sapiens, UniProt O14965).
T1 sequence (O14965 whole entry): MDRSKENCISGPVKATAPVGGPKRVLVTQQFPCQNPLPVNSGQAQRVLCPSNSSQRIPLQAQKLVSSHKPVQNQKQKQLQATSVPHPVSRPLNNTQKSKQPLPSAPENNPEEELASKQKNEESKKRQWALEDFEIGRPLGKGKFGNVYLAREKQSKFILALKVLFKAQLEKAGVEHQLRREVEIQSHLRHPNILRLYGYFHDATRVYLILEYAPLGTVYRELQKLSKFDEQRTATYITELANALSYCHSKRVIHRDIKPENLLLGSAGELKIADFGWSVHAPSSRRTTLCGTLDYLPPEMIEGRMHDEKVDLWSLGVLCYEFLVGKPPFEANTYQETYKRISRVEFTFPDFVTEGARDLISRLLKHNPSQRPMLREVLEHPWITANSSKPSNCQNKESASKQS
In words: Inhibition of AURORA-A (unknown origin).

The nature of data set [8]: Metabolic stability in mouse liver microsomes assessed as drug metabolism measured after 30 mins. The format is ADME, Microsome. To be noted: read-out: Drug metabolism.
The target of data set [9] is T2, Dual specificity protein kinase TTK (Homo sapiens, UniProt P33981).
T2 sequence (P33981 whole entry): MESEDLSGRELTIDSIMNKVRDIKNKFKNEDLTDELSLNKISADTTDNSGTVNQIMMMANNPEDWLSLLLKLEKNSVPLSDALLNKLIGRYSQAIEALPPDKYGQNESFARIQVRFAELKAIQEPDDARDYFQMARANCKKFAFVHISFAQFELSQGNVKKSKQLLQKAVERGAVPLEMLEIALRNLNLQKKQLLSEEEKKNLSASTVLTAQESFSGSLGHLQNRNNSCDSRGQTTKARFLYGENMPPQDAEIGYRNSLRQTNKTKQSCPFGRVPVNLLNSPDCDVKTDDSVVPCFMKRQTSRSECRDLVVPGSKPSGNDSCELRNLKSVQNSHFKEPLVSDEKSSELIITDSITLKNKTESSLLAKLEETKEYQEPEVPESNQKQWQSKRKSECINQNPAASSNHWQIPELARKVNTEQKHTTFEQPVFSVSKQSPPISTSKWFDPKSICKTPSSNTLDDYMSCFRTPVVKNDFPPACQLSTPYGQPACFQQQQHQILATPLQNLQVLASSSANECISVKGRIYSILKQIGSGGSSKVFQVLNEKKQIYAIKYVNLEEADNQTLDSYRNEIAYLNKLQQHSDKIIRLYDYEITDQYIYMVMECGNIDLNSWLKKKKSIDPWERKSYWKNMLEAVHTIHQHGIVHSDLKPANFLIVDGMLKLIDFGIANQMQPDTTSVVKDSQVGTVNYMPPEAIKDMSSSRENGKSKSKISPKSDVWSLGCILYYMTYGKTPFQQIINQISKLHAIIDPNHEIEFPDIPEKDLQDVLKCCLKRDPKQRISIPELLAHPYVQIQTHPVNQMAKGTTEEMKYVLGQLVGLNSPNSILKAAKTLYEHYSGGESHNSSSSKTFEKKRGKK
Description: Inhibition of human recombinant TTK expressed in Escherichia coli Rossetta 2 (DE3) incubated for 1 hr by TR-FRET assay.

The subject of data set [10] is OVCAR-4. Description: Growth inhibition of human OVCAR-4 cells measured after 72 hrs by SRB method. Type of data set: functional.
In data set [11] the test system is OVCAR-4. In words: Anticancer activity against human OVCAR-4 cells assessed as cell growth inhibition measured after 72 hrs by DAPI staining based analysis. The format is functional.
In a further data set the test system is SK-OV-3. In words: Anticancer activity against human SK-OV-3 cells assessed as cell growth inhibition measured after 72 hrs by DAPI staining based analysis. Type of data set: functional.
The subject of another data set is NCI/ADR-RES. In words: Anticancer activity against human NCI-ADR-RES cells assessed as cell growth inhibition measured after 72 hrs by DAPI staining based analysis. The format is functional.
The next data set has as its system OVCAR-3. In words: Anticancer activity against human OVCAR-3 cells assessed as cell growth inhibition measured after 72 hrs by DAPI staining based analysis. Type of data set: functional.
For data set [12], the system named is IGROV-1. In words: Growth inhibition of human IGROV-1 cells measured after 72 hrs by SRB method. The format is functional.
In the next data set the test system is OVCAR-5. Description: Anticancer activity against human OVCAR-5 cells assessed as cell growth inhibition measured after 72 hrs by DAPI staining based analysis. The format is functional.
The subject of data set [13] is IGROV-1. In words: Anticancer activity against human IGROV-1 cells assessed as cell growth inhibition measured after 72 hrs by DAPI staining based analysis. Type of data set: functional.
In another data set the test system is OVCAR-8. In words: Anticancer activity against human OVCAR-8 cells assessed as cell growth inhibition measured after 72 hrs by DAPI staining based analysis. The format is functional.
Data set [14] in a line: Clearance in Sprague-Dawley rat at 1 mg/kg, iv measured after 24 hrs by LC-MS/MS analysis. The format is ADME, organism-based. As to conditions: in vivo.

The results in this text go back to ChEMBL document CHEMBL5584232, “Hijacking monopolar spindle 1 (MPS1) for various cancer types by small molecular inhibitors: Deep insights from a decade of research and patents” (Eur J Med Chem, 2024).

The structures appear in SMILES notation.

Mitogen-activated protein kinase 8, sequence (P45983 whole entry): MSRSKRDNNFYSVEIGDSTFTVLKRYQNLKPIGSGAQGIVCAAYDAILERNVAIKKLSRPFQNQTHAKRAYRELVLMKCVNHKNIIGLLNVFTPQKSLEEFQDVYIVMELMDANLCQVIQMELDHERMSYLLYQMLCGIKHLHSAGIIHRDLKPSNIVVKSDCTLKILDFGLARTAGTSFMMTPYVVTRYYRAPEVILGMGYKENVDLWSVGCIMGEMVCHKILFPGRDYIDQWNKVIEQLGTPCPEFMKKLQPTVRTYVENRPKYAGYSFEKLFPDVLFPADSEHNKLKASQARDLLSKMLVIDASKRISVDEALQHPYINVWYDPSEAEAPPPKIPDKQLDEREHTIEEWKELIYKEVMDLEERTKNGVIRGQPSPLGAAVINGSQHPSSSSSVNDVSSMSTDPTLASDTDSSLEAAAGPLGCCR

As a reminder, the GI50 is the concentration at which growth is held to half of that of the control. Higher therefore signals less potent growth inhibition. The IC50 is the concentration needed to halve the response being measured. Take `NS(=O)(=O)c1cccc(-c2n[nH]c3ccc(NC(=O)C(c4ccsc4)N4CCCC4)cc23)c1` (configuration not stated): the GI50 in the data set on MDA-MB-468 came to 70 nM; in the data set with A549 [1], 100 nM; with HCT-116 [3], 100 nM. The compound further gave an IC50 at CYP450 of 900 nM. In addition, the inhibition in vivo at 12.5 mg/kg with HCT-116 [2] turned out to be 66%.

Consider `CNC(=O)c1ccc(Nc2nc(OC3CCCC3)c3c(-c4cc[nH]n4)c[nH]c3n2)c(OC)c1`, for which, in the data set on CAL-51, the IC50 was 400 nM.

Turning to `CCOc1cc2c(-c3ccc(C)c(S(N)(=O)=O)c3)n[nH]c2cc1-c1cnn(C)c1`, the IC50 with A549 [4] was 386 nM.

Regarding `CCc1ccccc1C(C(=O)Nc1ccc2[nH]nc(-c3cccc(S(N)(=O)=O)c3)c2c1)N(C)C` (configuration not stated), the IC50 on CYP450 turned out to be 700 nM. In addition, in the data set on HCT-116 [2], the inhibition in vivo at 12.5 mg/kg came to 10%.

Compound `CCOc1ccc2[nH]nc(-c3cccc(NC(C)=O)c3)c2c1` showed an IC50 in [5] of 150 nM.

Broadly, the half-life is the time needed for the level to fall by half in the phase considered. A low value points to fast loss. As usually defined, the AUC is concentration integrated over time. The low end stands for low exposure, the high end for high exposure. With `CCC(=O)N[C@H]1CC[C@@H](n2c(=O)cc(C)c3cnc(Nc4ccc(N5CCN(C(=O)CCCCC#Cc6ccc7c(c6)CN(C6CCC(=O)NC6=O)C7=O)CC5)cc4OC)nc32)CC1` (some centres not stated), the IC50 in the data set with COLO 205 stood at 200 nM. This compound gave a half-life in data set [6] of 3.2 h. This compound yielded an area under the curve (AUC) in data set [7] of 2.33 µM·h.

With `COc1cc(N2CCN(C)CC2)ccc1Nc1ncc2c(n1)-n1ccc(C(=O)Nc3c(C)cccc3C)c1CC2`, the IC50 with MOLT-4 was 11 nM.

On to `CN(C)C(=O)c1cc2cnc(Nc3ccc(-c4cnn(C)c4)cc3Cl)cc2[nH]1`, for which the IC50 against Aurora kinase A was > 100000 nM. Also, the metabolised at 0.5 h in data set [8] was 20%.

Regarding `COc1cc(N2CCC(O)CC2)ccc1Nc1nc(Nc2ccccc2S(=O)(=O)C(C)C)c2nc[nH]c2n1`, in data set [9], the IC50 amounted to 15 nM.

In general, TGI refers to the concentration giving total growth inhibition. `O=c1c2cc(Cl)ccc2sc2c(NCCCNCCO)nc3ccccc3c12`: the GI50 with OVCAR-4 [10] and in the data set with IGROV-1 [12] was 1600 nM each time. Also, the TGI with OVCAR-4 [11] was determined as 3230 nM; in the data set with SK-OV-3 it was 3380 nM; with NCI/ADR-RES it was 3630 nM; in the data set on OVCAR-3, 3510 nM; with OVCAR-5, 3500 nM; with IGROV-1 [13], 3600 nM. In the data set on OVCAR-8, the TGI worked out at 3320 nM.

On to `COC1CCN(C(=O)c2ccc(Nc3cc4[nH]c(C(=O)N(C)C)cc4cn3)c(Cl)c2)CC1`, for which, on Aurora kinase A, the IC50 is > 100000 nM. For the same compound, in data set [8], the metabolised at 0.5 h is 23%.

Regarding `COc1cc(C(=O)NC(C)(C)CO)ccc1Nc1nc(OC2CCCC2)c2c(-c3ccc4nc(C)oc4c3)c[nH]c2n1`, the IC50 with CAL-51 turned out to be 100 nM.

In data set [5], `CCOc1ccc2[nH]nc(-c3ccc(NC(C)=O)cc3)c2c1` returned an IC50 of 28 nM.

Usually clearance stands for a measure of how efficiently the substance is removed, as volume per time. The low end stands for a low capacity for elimination, the high end for a high capacity for elimination. `Cn1cc(-c2cc3[nH]nc(-c4cccc(S(N)(=O)=O)c4)c3cc2NC2CCCCC2)cn1` showed a clearance in data set [14] of 33 mL/min/kg.

For `COc1cc(N2CCN(C)CC2)ccc1Nc1ncc2c(n1)-n1ccc(C(=O)Nc3c(C)cccc3F)c1CC2`, the IC50 in the data set with MOLT-4 was 11 nM.
